{
  "source": "patent US4818754A",
  "about": "“Certain anti-inflammatory pyrazolo [4,3-b] pyridine 7-amines” (Beecham Group p.l.c. of Beecham House, priority 1986, dated 1989)",
  "key": {"[1]": {"test_system": "swelling induced by cantharidin", "assay": "Mouse cantharidin test (topical anti-inflammatory activity, mouse ear swelling)", "format": "in vivo", "conditions": "24 hours, CDl male mice, **p < 0.01, ***p < 0.001; for inhibition in vivo at 500 µg/ear: dose 500 μg/ear; for inhibition in vivo at 200 µg/ear: dose 200 μg/ear", "procedure": "Compounds were tested for topical anti-inflammatory activity in a cantharidin mouse ear screen, modified from Swingle, Reiter and Schwartzmiller [Arch. int. Pharmacodyn. 254, 168-176, 1981].\n25 μg cantharidin (in 10 μl tetrahydrofuran:methanol, 1:1 v/v) is applied to both ears of CDl male mice, 25 g bodyweight. 8 animals are used per experimental group. Compounds are included in the irritant solution applied to the left ear only. Negative control animals receive no treatment except 10 μl solvent on each ear. After 24 hours, the animals are killed and the ears are removed by cutting along the hairline and then weighed. The swelling induced by cantharidin is assessed as the increase in the weight of the right ears over that of the right ears of solvent-treated control animals, as a proportion of the weight of solvent-treated right ears. The swelling induced in the same animals in the presence of test compound is similarly the increase in the weight of the left ears over that of the left ears of the solvent-treated control animals, expressed as a proportion of the weight of solvent-treated left ears.\nthus, % inhibition=([means wt.left experimental ears-mean wt.left 100-control ears]/[mean wt.left control ears])×100 ([mean wt.right experimental ears-mean wt.right control ears]/[mean wt.right control ears])\n(§1) This method reduces the contribution of inter-animal variations in responsiveness to the inflammatory stimulus, and also compensates for any consistent bias in cutting off left and right ears. The significance of the inhibition is calculated using a paired `t` test of the two values of proportional weight increases."}, "[2]": {"test_system": "swelling induced by oxazolone", "assay": "Mouse oxazolone test (topical anti-inflammatory activity in mice sensitised to oxazolone, ear swelling)", "format": "in vivo", "conditions": "dose 200 μg/ear, 1 hour before challenge, 24 hours after, CDl male mice, *p < 0.1, **p < 0.01, ***p < 0.001", "procedure": "Compounds were tested for topical anti-inflammatory activity in a model system using the mouse sensitised to oxazolone, by a method modified from that of Dietrich and Hess [Int. Arch. Allergy, 38, 246 (1970)].\nMice are sensitised with oxazolone (2 mg in 20 μl acetone) on a shaved area of the abdomen. CDl male mice of around 25 g bodyweight (8 animals per group) are used. 5 days later, the animals receive 10 μl tetrahydrofuran:methanol (1:1 v/v) on the right ear and the test compound in 10 μl of the same solvent on the left ear. 1 hour later, the animals are challenged with 100 μg oxazolone in 10 μl acetone on each ear. Negative control animals receive no treatment except 10 μl tetrahydrofuran:methanol at the initial time point. After 24 hours, the animals are killed and the ears are removed by cutting along the hairline and then weighed. The swelling induced by oxazolone is assessed as the increase in the weight of the right ears over that of the right ears of solvent-treated control animals, as a proportion of the weight of solvent-treated right ears. The swelling induced in the same animals in the presence of test compound is similarly the increase in the weight of the left ears over that of the left ears of the solvent-treated control animals, expressed as a proportion of the weight of solvent-treated left ears.\nthus, % inhibition=([mean wt.left experimental ears-mean wt.left 100-control ears]/[mean wt.left control ears])×100 ([mean wt.right experimental ears-mean wt.right control ears]/[mean wt.right control ears])\nas §1"}},
  "data": [
    {"smiles": "CCOC(=O)CCCNc1ccnc2cn[nH]c12", "note": "[Example 2, Ethyl 4-(7-(1H-Pyrazolo[4,3-b]pyridyl)amino)butanoate]", "values": [
      {"measurement": "inhibition in vivo at 500 µg/ear", "setting": "[1]", "value": 94.6, "unit": "%"},
      {"measurement": "% Inhibition", "setting": "[2]", "value": 48.6, "unit": "%"}
    ]},
    {"smiles": "Cc1cc(NCCCN2CCCC2=O)c2[nH]ncc2n1", "note": "[Example 3, 5-Methyl-7-(3-(1-(2-oxopyrrolidinyl))propylamino)-1H-pyrazolo[4,3-b]pyridine]", "values": [
      {"measurement": "inhibition in vivo at 200 µg/ear", "setting": "[1]", "value": 75.3, "unit": "%"},
      {"measurement": "% Inhibition", "setting": "[2]", "value": 44.1, "unit": "%"}
    ]},
    {"smiles": "CCCCC(=O)OCCCNc1cc(C)nc2cn[nH]c12", "note": "[Example 4, 7-[3-Pentanoyloxypropylamino]-5-methyl-1H-pyrazolo[4,3-b]pyridine]", "values": [
      {"measurement": "inhibition in vivo at 200 µg/ear", "setting": "[1]", "value": 69.9, "unit": "%"}
    ]},
    {"smiles": "Cc1cc(NCCN2CCOCC2)c2[nH]ncc2n1", "note": "[Example 5, 7-[2-(N-Morpholino)ethylamino]-5-methyl-1H-pyrazolo [4,3-b]pyridine dihydrate]", "values": [
      {"measurement": "inhibition in vivo at 200 µg/ear", "setting": "[1]", "value": 97.6, "unit": "%"},
      {"measurement": "% Inhibition", "setting": "[2]", "value": 61.6, "unit": "%"}
    ]},
    {"smiles": "CC(=O)OCCCNc1cc(C)nc2cn[nH]c12", "note": "[Example 6, 7-[3-Acetoxypropylamino]-5-methyl-1H-pyrazolo[4,3-b]-pyridine]", "values": [
      {"measurement": "inhibition in vivo at 200 µg/ear", "setting": "[1]", "value": 70, "unit": "%"},
      {"measurement": "% Inhibition", "setting": "[2]", "value": 53, "unit": "%"}
    ]},
    {"smiles": "Cc1cc(NCCOC(=O)c2ccccc2)c2[nH]ncc2n1", "note": "[Example 7, 7-[2-Benzoyloxyethylamino]-5-methyl-1H-pyrazolo[4,3-b]pyridine]", "values": [
      {"measurement": "inhibition in vivo at 500 µg/ear", "setting": "[1]", "value": 99.6, "unit": "%"},
      {"measurement": "% Inhibition", "setting": "[2]", "value": 30, "unit": "%"}
    ]},
    {"smiles": "O=C(CCCNc1ccnc2cn[nH]c12)NCc1ccccc1", "note": "[Example 8, (7-(1H-Pyrazolo[4,3,-b]pyridyl)amino)butanoic acid benzylamide]", "values": [
      {"measurement": "inhibition in vivo at 500 µg/ear", "setting": "[1]", "value": 95, "unit": "%"}
    ]},
    {"smiles": "CCCCC(=O)OCCNc1cc(C)nc2cn[nH]c12", "note": "[Example 9, 7-(2-Pentanoyloxyethylamino)-5-methyl-1H-pyrazolo[4,3-b]pyridine]", "values": [
      {"measurement": "inhibition in vivo at 200 µg/ear", "setting": "[1]", "value": 69, "unit": "%"}
    ]},
    {"smiles": "CCC(=O)OCCNc1cc(C)nc2cn[nH]c12", "note": "[Example 10, 7-[2-Propionyloxyethylamino]-5-methyl-1H-pyrazolo[4,3-b]pyridine]", "values": [
      {"measurement": "inhibition in vivo at 200 µg/ear", "setting": "[1]", "value": 55, "unit": "%"}
    ]},
    {"smiles": "CC(C)CCOC(=O)CCCNc1ccnc2cn[nH]c12", "note": "[Example 12, Isoamyl (7-(1H-pyrazolo[4,3-b]pyridyl)amino)butanoate]", "values": [
      {"measurement": "inhibition in vivo at 200 µg/ear", "setting": "[1]", "value": 78, "unit": "%"}
    ]}
  ]
}
